Assay results reported in the NIST ThermoML archive (doi:10.1016/j.jct.2010.08.019).
Numbers after ± are expanded uncertainties.

Experiment: xn = mol fraction of the nth substance listed
Conditions: for surface tension liquid-gas: Wilhelmy-plate method; for viscosity / mass density: 101 kPa, Liquid; for viscosity: Falling or rolling sphere viscometry; for mass density: Vibrating tube method

CC(C)CC(C)(C)C [2,2,4-trimethylpentane] + CC(C)O
Conditions | mass density [kg/m3] | surface tension liquid-gas [mN/m] | viscosity [mPa·s]
293.15 K, x2 = 0 | 691.98 ± 0.18 | 18.8 ± 0.4 | 0.503 ± 0.009
293.15 K, x2 = 0.0501 | 693.38 ± 0.18 | – | 0.502 ± 0.009
293.15 K, x2 = 0.1006 | 695.3 ± 0.18 | 18.8 ± 0.4 | 0.509 ± 0.009
293.15 K, x2 = 0.1512 | 697.45 ± 0.18 | – | 0.517 ± 0.009
293.15 K, x2 = 0.2003 | 699.71 ± 0.18 | 18.9 ± 0.4 | 0.53 ± 0.009
293.15 K, x2 = 0.2501 | 702.18 ± 0.18 | – | 0.543 ± 0.009
293.15 K, x2 = 0.3003 | 704.91 ± 0.17 | 19 ± 0.4 | 0.563 ± 0.009
293.15 K, x2 = 0.3502 | 707.91 ± 0.17 | – | 0.593 ± 0.009
293.15 K, x2 = 0.4004 | 711.2 ± 0.17 | 19 ± 0.4 | 0.628 ± 0.009
293.15 K, x2 = 0.4502 | 714.74 ± 0.17 | – | 0.662 ± 0.01
293.15 K, x2 = 0.5001 | 718.61 ± 0.17 | 19.2 ± 0.4 | 0.699 ± 0.01
293.15 K, x2 = 0.55 | 722.8 ± 0.17 | – | 0.755 ± 0.01
293.15 K, x2 = 0.5998 | 727.34 ± 0.17 | 19.3 ± 0.4 | 0.82 ± 0.01
293.15 K, x2 = 0.6502 | 732.45 ± 0.17 | – | 0.906 ± 0.011
293.15 K, x2 = 0.7002 | 737.93 ± 0.17 | 19.6 ± 0.4 | 1.004 ± 0.011
293.15 K, x2 = 0.7499 | 743.9 ± 0.16 | – | 1.12 ± 0.012
293.15 K, x2 = 0.7999 | 750.57 ± 0.16 | 20 ± 0.4 | 1.264 ± 0.013
293.15 K, x2 = 0.85 | 757.91 ± 0.16 | – | 1.439 ± 0.014
293.15 K, x2 = 0.8999 | 766.04 ± 0.16 | 20.6 ± 0.4 | 1.666 ± 0.015
293.15 K, x2 = 0.95 | 775.2 ± 0.16 | – | 1.96 ± 0.018
303.15 K, x2 = 0 | 683.61 ± 0.18 | 17.9 ± 0.4 | 0.447 ± 0.009
303.15 K, x2 = 0.05 | 684.93 ± 0.18 | – | 0.444 ± 0.009
303.15 K, x2 = 0.1 | 686.65 ± 0.18 | 17.9 ± 0.4 | 0.45 ± 0.009
303.15 K, x2 = 0.1499 | 688.68 ± 0.18 | – | 0.457 ± 0.009
303.15 K, x2 = 0.2004 | 690.94 ± 0.18 | 17.9 ± 0.4 | 0.464 ± 0.009
303.15 K, x2 = 0.2497 | 693.36 ± 0.18 | – | 0.474 ± 0.009
303.15 K, x2 = 0.3 | 696.11 ± 0.18 | 18 ± 0.4 | 0.491 ± 0.009
303.15 K, x2 = 0.3499 | 699.03 ± 0.18 | – | 0.508 ± 0.009
303.15 K, x2 = 0.4008 | 702.3 ± 0.18 | 18 ± 0.4 | 0.532 ± 0.009
303.15 K, x2 = 0.4503 | 705.79 ± 0.17 | – | 0.558 ± 0.009
303.15 K, x2 = 0.5 | 709.61 ± 0.17 | 18.1 ± 0.4 | 0.589 ± 0.009
303.15 K, x2 = 0.5498 | 713.82 ± 0.17 | – | 0.633 ± 0.009
303.15 K, x2 = 0.6001 | 718.44 ± 0.17 | 18.3 ± 0.4 | 0.682 ± 0.01
303.15 K, x2 = 0.65 | 723.45 ± 0.17 | – | 0.745 ± 0.01
303.15 K, x2 = 0.7001 | 728.94 ± 0.17 | 18.6 ± 0.4 | 0.814 ± 0.01
303.15 K, x2 = 0.7495 | 734.92 ± 0.17 | – | 0.899 ± 0.011
303.15 K, x2 = 0.7989 | 741.51 ± 0.17 | 19 ± 0.4 | 0.995 ± 0.011
303.15 K, x2 = 0.8499 | 748.97 ± 0.16 | – | 1.158 ± 0.012
303.15 K, x2 = 0.8997 | 757.15 ± 0.16 | 19.6 ± 0.4 | 1.307 ± 0.013
303.15 K, x2 = 0.95 | 766.32 ± 0.16 | – | 1.485 ± 0.014
313.15 K, x2 = 0 | 675.23 ± 0.18 | 16.9 ± 0.4 | 0.404 ± 0.009
313.15 K, x2 = 0.0499 | 676.34 ± 0.18 | – | 0.398 ± 0.009
313.15 K, x2 = 0.1001 | 677.92 ± 0.18 | 16.9 ± 0.4 | 0.401 ± 0.009
313.15 K, x2 = 0.1503 | 679.86 ± 0.18 | – | 0.405 ± 0.009
313.15 K, x2 = 0.2001 | 682.09 ± 0.18 | 16.9 ± 0.4 | 0.412 ± 0.009
313.15 K, x2 = 0.2499 | 684.47 ± 0.18 | – | 0.42 ± 0.009
313.15 K, x2 = 0.3003 | 687.15 ± 0.18 | 17 ± 0.4 | 0.43 ± 0.009
313.15 K, x2 = 0.3497 | 689.97 ± 0.18 | – | 0.449 ± 0.009
313.15 K, x2 = 0.4 | 693.18 ± 0.18 | 17.1 ± 0.4 | 0.458 ± 0.009
313.15 K, x2 = 0.4502 | 696.67 ± 0.18 | – | 0.476 ± 0.009
313.15 K, x2 = 0.5005 | 700.49 ± 0.18 | 17.2 ± 0.4 | 0.5 ± 0.009
313.15 K, x2 = 0.5499 | 704.67 ± 0.18 | – | 0.529 ± 0.009
313.15 K, x2 = 0.6 | 709.23 ± 0.17 | 17.5 ± 0.4 | 0.569 ± 0.009
313.15 K, x2 = 0.6498 | 714.27 ± 0.17 | – | 0.61 ± 0.009
313.15 K, x2 = 0.6999 | 719.71 ± 0.17 | 17.8 ± 0.4 | 0.657 ± 0.01
313.15 K, x2 = 0.75 | 725.83 ± 0.17 | – | 0.719 ± 0.01
313.15 K, x2 = 0.7998 | 732.49 ± 0.17 | 18.2 ± 0.4 | 0.782 ± 0.01
313.15 K, x2 = 0.8498 | 739.89 ± 0.17 | – | 0.87 ± 0.011
313.15 K, x2 = 0.8999 | 748.21 ± 0.16 | 18.8 ± 0.4 | 0.987 ± 0.011
313.15 K, x2 = 0.9499 | 757.39 ± 0.16 | – | 1.129 ± 0.012
323.15 K, x2 = 0 | 666.8 ± 0.19 | 16.2 ± 0.4 | 0.365 ± 0.009
323.15 K, x2 = 0.0501 | 667.65 ± 0.19 | – | 0.359 ± 0.008
323.15 K, x2 = 0.1 | 669.08 ± 0.19 | 16.2 ± 0.4 | 0.36 ± 0.008
323.15 K, x2 = 0.15 | 670.98 ± 0.19 | – | 0.366 ± 0.009
323.15 K, x2 = 0.1998 | 673.08 ± 0.18 | 16.2 ± 0.4 | 0.37 ± 0.009
323.15 K, x2 = 0.25 | 675.42 ± 0.18 | – | 0.375 ± 0.009
323.15 K, x2 = 0.3 | 677.99 ± 0.18 | 16.2 ± 0.4 | 0.383 ± 0.009
323.15 K, x2 = 0.35 | 680.86 ± 0.18 | – | 0.392 ± 0.009
323.15 K, x2 = 0.4 | 683.93 ± 0.18 | 16.3 ± 0.4 | 0.403 ± 0.009
323.15 K, x2 = 0.4499 | 687.34 ± 0.18 | – | 0.417 ± 0.009
323.15 K, x2 = 0.5 | 691.07 ± 0.18 | 16.4 ± 0.4 | 0.433 ± 0.009
323.15 K, x2 = 0.5501 | 695.17 ± 0.18 | – | 0.456 ± 0.009
323.15 K, x2 = 0.6 | 699.74 ± 0.18 | 16.7 ± 0.4 | 0.479 ± 0.009
323.15 K, x2 = 0.65 | 704.78 ± 0.18 | – | 0.508 ± 0.009
323.15 K, x2 = 0.7 | 710.22 ± 0.17 | 17 ± 0.4 | 0.544 ± 0.009
323.15 K, x2 = 0.7499 | 716.22 ± 0.17 | – | 0.588 ± 0.009
323.15 K, x2 = 0.7999 | 722.88 ± 0.17 | 17.4 ± 0.4 | 0.632 ± 0.009
323.15 K, x2 = 0.85 | 730.48 ± 0.17 | – | 0.696 ± 0.01
323.15 K, x2 = 0.9 | 738.82 ± 0.17 | 18 ± 0.4 | 0.776 ± 0.01
323.15 K, x2 = 0.95 | 748.16 ± 0.17 | – | 0.875 ± 0.011
